Measurements from US10131652B2, “Pyrimidinyloxy benzene derivatives as herbicides” (E. I. DU PONT DE NEMOURS AND COMPANY, priority 2014, dated 2018).

Columns and labels:
Assay type in all cases: in vivo
[1] = system: Italian ryegrass (Lolium multiflorum); test: Test B pre-/postemergence plant response
Text: (§1) Seeds of plant species selected from bamyardgrass (Echinochloa crus-galli), kochia (Kochia scoparia), ragweed (common ragweed, Ambrosia elatior), Italian ryegrass (Lolium multiflorum), large (Lg) crabgrass (Digitaria sanguinalis), giant foxtail (Setaria faberii), momingglory (Ipomoea spp.), pigweed (Amaranthus retroflexus), velvetleaf (Abutilon theophrasti), wheat (Triticum aestivum), and corn (Zea mays) were planted into a blend of loam soil and sand and treated preemergence with a directed soil spray using test chemicals formulated in a non-phytotoxic solvent mixture which included a surfactant. At the same time, plants selected from these crop and weed species and also blackgrass (Alopecurus myosuroides), and galium (catchweed bedstraw, Galium aparine) were planted in pots containing the same blend of loam soil and sand and treated with postemergence applications of test chemicals formulated in the same manner. Plants ranged in height from 2 to 10 cm and were in the one- to two-leaf stage for the postemergence treatment. Treated plants and untreated controls were maintained in a greenhouse for approximately 10 days, after which time all treated plants were compared to untreated controls and visually evaluated for injury. Plant response ratings, summarized in Table B, are based on a 0 to 100 scale where 0 is no effect and 100 is complete control. A dash (-) response means no test result.

[2] = system: barnyardgrass (Echinochloa crus-galli); test: Test B pre-/postemergence plant response
Text: as §1

[3] = system: corn (Zea mays); test: Test B pre-/postemergence plant response; conditions: 0 to 100 scale, 0 no effect, 100 complete control
Text: as §1

[4] = system: giant foxtail (Setaria faberii); test: Test B pre-/postemergence plant response
Text: as §1

[5] = system: kochia (Kochia scoparia); test: Test B pre-/postemergence plant response
Text: as §1

[6] = system: pigweed (Amaranthus retroflexus); test: Test B pre-/postemergence plant response
Text: as §1

[7] = system: ragweed (common ragweed, Ambrosia elatior); test: Test B pre-/postemergence plant response
Text: as §1

[8] = system: wheat (Triticum aestivum); test: Test B pre-/postemergence plant response; conditions: 0 to 100 scale, 0 no effect, 100 complete control
Text: as §1

[9] = system: blackgrass (Alopecurus myosuroides); test: Test B postemergence plant response; conditions: 0 to 100 scale, 0 no effect, 100 complete control
Procedure, shortened: (§2)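 Plants grown in pots of loam soil–sand blend were sprayed postemergence with formulated test chemicals at 2 to 10 cm height, one- to two-leaf stage. After about 10 days in a greenhouse, injury was visually rated against untreated controls on a 0 to 100 scale (0 no effect, 100 complete control).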

[10] = system: galium (catchweed bedstraw, Galium aparine); test: Test B postemergence plant response; conditions: 0 to 100 scale, 0 no effect, 100 complete control
Procedure, shortened: as §2

[11] = system: barnyardgrass (Echinochloa crus-galli); test: Test C flooded paddy test plant response; conditions: Flood, 250 g ai/ha; scale of 0 to 100 where 0 is no effect and 100 is complete control; 13 to 15 days
Procedure, shortened: (§3)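 Plants grown to 2-leaf stage, flooded 3 cm above soil; compounds applied directly into paddy water, depth kept throughout. Visual rating versus controls after 13 to 15 days in greenhouse, 0 (no effect) to 100 (complete control).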

[12] = system: ducksalad (Heteranthera limosa); test: Test C flooded paddy test plant response; conditions: Flood, 250 g ai/ha; scale of 0 to 100 where 0 is no effect and 100 is complete control; 13 to 15 days
Procedure, shortened: as §3

[13] = system: rice (Oryza sativa); test: Test C flooded paddy test plant response; conditions: Flood, 250 g ai/ha; scale of 0 to 100 where 0 is no effect and 100 is complete control; 13 to 15 days
Procedure, shortened: as §3

[14] = system: small-flower umbrella sedge (Cyperus difformis); test: Test C flooded paddy test plant response; conditions: Flood, 250 g ai/ha; scale of 0 to 100 where 0 is no effect and 100 is complete control; 13 to 15 days
Procedure, shortened: as §3

[15] = 31 g ai/ha, Postemergence, 0 to 100 scale, 0 no effect, 100 complete control
[16] = 125 g ai/ha, postemergence, 0 to 100 scale, 0 no effect, 100 complete control
[17] = Preemergence, 31 g ai/ha, 0 to 100 scale (0 no effect, 100 complete control)
[18] = Preemergence, 125 g ai/ha, 0 to 100 scale where 0 is no effect and 100 is complete control
[19] = 31 g ai/ha, Preemergence, 0 to 100 scale where 0 is no effect and 100 is complete control

| Structure (SMILES) | Plant response rating, Ryegrass, Italian [1, 15] | Plant response rating, Ryegrass, Italian [1, 16] | Plant response rating, Barnyardgrass [2, 15] | Plant response rating, Barnyardgrass [2, 16] | Plant response rating, Barnyardgrass [2, 18] | Plant response rating, Corn ([3]; 31 g ai/ha, Postemergence) | Plant response rating, Corn ([3]; 125 g ai/ha, postemergence) | Plant response rating, Foxtail, Giant [4, 15] | Plant response rating, Foxtail, Giant [4, 16] | Plant response rating, Foxtail, Giant [4, 18] | Plant response rating, Kochia [5, 15] | Plant response rating, Kochia [5, 16] | Plant response rating, Kochia [5, 18] | Plant response rating, Pigweed [6, 15] | Plant response rating, Pigweed [6, 16] | Plant response rating, Ragweed [7, 15] | Plant response rating, Ragweed [7, 16] | Plant response rating, Wheat ([8]; 31 g ai/ha, Postemergence) | Plant response rating, Wheat ([8]; 125 g ai/ha, postemergence) | Plant response rating, Blackgrass ([9]; 31 g ai/ha, Postemergence) | other results |
| --- | --- | --- | --- | --- | --- | --- | --- | --- | --- | --- | --- | --- | --- | --- | --- | --- | --- | --- | --- | --- | --- |
| Fc1cc(F)c(-c2cc(C(F)F)no2)c(Oc2ncc(Cl)cn2)c1 [Compound 107] | 0 | 0 | 0 | 0 | 0 | 0 | 0 | 0 | 0 | 0 | 0 | 0 | 0 | 0 | 0 | 0 | 0 | 0 | 0 | 0 | Ryegrass, Italian plant response rating [1, 17]: 0; Plant response rating, Ryegrass, Italian [1, 18]: 0; Barnyardgrass plant response rating [2, 17]: 0; Foxtail, Giant plant response rating [4, 17]: 0; Kochia plant response rating [5, 17]: 0; Pigweed plant response rating [6, 17]: 0; Plant response rating, Pigweed [6, 18]: 0; Ragweed plant response rating [7, 17]: 0; Plant response rating, Ragweed [7, 18]: 0; Plant response rating, Blackgrass ([9]; 125 g ai/ha, postemergence): 0; Plant response rating, Galium ([10]; 31 g ai/ha, Postemergence): 0; Plant response rating, Galium ([10]; 125 g ai/ha, postemergence): 0; Barnyardgrass plant response rating [11]: 0; Ducksalad plant response rating [12]: 0; Rice plant response rating [13]: 0; Sedge, Umbrella plant response rating [14]: 0 |
| CCOC(OCC)c1cc(-c2ccccc2Oc2ncc(Cl)cn2)on1 [Compound 108] | 0 | 0 | 0 | 0 | 0 | 0 | 10 | 0 | 0 | 0 | 0 | 0 | 0 | 0 | 0 | 0 | 0 | 0 | 0 | 0 | Plant response rating, Ryegrass, Italian [1, 19]: 0; Plant response rating, Ryegrass, Italian [1, 18]: 0; Plant response rating, Barnyardgrass [2, 19]: 0; Plant response rating, Foxtail, Giant [4, 19]: 0; Plant response rating, Kochia [5, 19]: 0; Plant response rating, Pigweed [6, 19]: 0; Plant response rating, Pigweed [6, 18]: 0; Plant response rating, Ragweed [7, 19]: 0; Plant response rating, Ragweed [7, 18]: 0; Plant response rating, Blackgrass ([9]; 125 g ai/ha, postemergence): 0; Plant response rating, Galium ([10]; 31 g ai/ha, Postemergence): 30; Plant response rating, Galium ([10]; 125 g ai/ha, postemergence): 50; Barnyardgrass plant response rating [11]: 0; Ducksalad plant response rating [12]: 0; Rice plant response rating [13]: 0; Sedge, Umbrella plant response rating [14]: 0 |
| COc1cccc(Oc2ncc(Cl)cn2)c1-c1cc(C(F)F)on1 [Compound 109] | 10 | 50 | 60 | 90 | 100 | 10 | 60 | 60 | 90 | 100 | 0 | 30 | 30 | 80 | 100 | 60 | 90 | 0 | 10 | 50 | Plant response rating, Ryegrass, Italian [1, 19]: 0; Plant response rating, Ryegrass, Italian [1, 18]: 10; Plant response rating, Barnyardgrass [2, 19]: 40; Plant response rating, Foxtail, Giant [4, 19]: 80; Plant response rating, Kochia [5, 19]: 0; Plant response rating, Pigweed [6, 19]: 90; Plant response rating, Pigweed [6, 18]: 100; Plant response rating, Ragweed [7, 19]: 20; Plant response rating, Ragweed [7, 18]: 70; Plant response rating, Blackgrass ([9]; 125 g ai/ha, postemergence): 90; Plant response rating, Galium ([10]; 31 g ai/ha, Postemergence): 50; Plant response rating, Galium ([10]; 125 g ai/ha, postemergence): 100; Barnyardgrass plant response rating [11]: 30; Ducksalad plant response rating [12]: 85; Rice plant response rating [13]: 35; Sedge, Umbrella plant response rating [14]: 80 |
| COc1cccc(Oc2ncc(Cl)cn2)c1-c1cc(C)no1 [Compound 110] | 0 | 0 | 0 | 50 | 40 | 0 | 10 | 0 | 70 | 70 | 10 | 50 | 0 | 10 | 30 | 30 | 40 | 0 | 0 | 0 | Plant response rating, Ryegrass, Italian [1, 19]: 0; Plant response rating, Barnyardgrass [2, 19]: 0; Plant response rating, Foxtail, Giant [4, 19]: 0; Plant response rating, Kochia [5, 19]: 0; Plant response rating, Pigweed [6, 19]: 10; Plant response rating, Ragweed [7, 19]: 0; Plant response rating, Blackgrass ([9]; 125 g ai/ha, postemergence): 40; Plant response rating, Galium ([10]; 31 g ai/ha, Postemergence): 20; Plant response rating, Galium ([10]; 125 g ai/ha, postemergence): 70; Barnyardgrass plant response rating [11]: 0; Ducksalad plant response rating [12]: 30; Rice plant response rating [13]: 0; Sedge, Umbrella plant response rating [14]: 60 |
| COc1cccc(Oc2ncc(F)cn2)c1-c1cc(C)no1 [Compound 111] | 0 | 0 | 0 | 10 | 20 | 0 | 10 | 0 | 60 | 50 | 20 | 30 | 10 | 0 | 20 | 10 | 20 | 0 | 0 | 0 | Plant response rating, Ryegrass, Italian [1, 19]: 0; Plant response rating, Barnyardgrass [2, 19]: 0; Plant response rating, Foxtail, Giant [4, 19]: 0; Plant response rating, Kochia [5, 19]: 0; Plant response rating, Pigweed [6, 19]: 10; Plant response rating, Ragweed [7, 19]: 0; Plant response rating, Blackgrass ([9]; 125 g ai/ha, postemergence): 40; Plant response rating, Galium ([10]; 31 g ai/ha, Postemergence): 10; Plant response rating, Galium ([10]; 125 g ai/ha, postemergence): 20; Barnyardgrass plant response rating [11]: 0; Ducksalad plant response rating [12]: 0; Rice plant response rating [13]: 0; Sedge, Umbrella plant response rating [14]: 0 |
